“Also recorded” adds a separate entry of the source.
How the values were obtained:
MARCH5 [1] = target: T1, MARCH5 (Homo sapiens, UniProt Q9NX47); assay: MARCH5 / γc-luciferase reporter system in co-transfected HEK293 cells (screen of FDA-approved drugs); type: cell-based; settings: HEK293 cells co-transfected with MARCH5 and γc-luciferase fusion protein; increase = MARCH5 inhibition
T1 construct: expressed in transfected cells; host or cells: HEK293
T1 sequence (Q9NX47 1-278): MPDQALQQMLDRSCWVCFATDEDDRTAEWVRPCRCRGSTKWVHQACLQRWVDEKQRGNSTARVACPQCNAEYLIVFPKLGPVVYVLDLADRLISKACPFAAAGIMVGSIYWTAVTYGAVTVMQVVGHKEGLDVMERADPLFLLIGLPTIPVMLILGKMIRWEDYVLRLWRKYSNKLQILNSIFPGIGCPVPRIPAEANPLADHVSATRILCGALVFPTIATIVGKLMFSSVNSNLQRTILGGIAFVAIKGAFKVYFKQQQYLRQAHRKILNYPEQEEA
Source text: Unfortunately, no pharmacological inhibitors of MARCH5 have been reported. We designed a reporter system in which HEK293 cells are co-transfected with two plasmids encoding MARCH5 and γc-luciferase fusion protein respectively. In this system, inhibition of MARCH5 by an inhibitor would result in increased luciferase activity in reporter assays.
Using this system, we screened a collection of Food and Drug Administration-approved drugs and identified 10 compounds that increased luciferase activity to more than 1.5-folds (Table 1). […] Pitavastatin is a unique lipophilic statin and potent inhibitor of HMG-CoA reductase with a strong effect on lowering plasma total cholesterol and triacylglycerol. Pitavastatin has also been reported to have pleiotropic beneficial effects such as suppression of inflammation, regulation of angiogenesis and osteogenesis, improvement of endothelial function and arterial stiffness.

γc [2] = assay: γc degradation in Jurkat cells with degradation-route inhibitors (CHX chase or PD-L1 stimulation); type: cell-based, human
Description: PD-1-expressing Jurkat cells were pre-stimulated with PHA (50 ng/ml) for 36 h and then treated with CHX (0.1 mM) for the indicated times before immunoblotting analysis with the indicated antibodies. […] PD-1-expressing Jurkat cells were stimulated with PHA (50 ng/ml) in the presence of 2 μg/ml human PD-L1-Fc fusion protein or control (human IgG1) for 36 h, and then treated with MG132 ([…]), NH4Cl (25 mM) or 3-MA (500 ng/ml) for 12 h before immunoblotting analysis with the indicated antibodies. • (D) PD-1 ligation induces polyubiquitination of γc. PD-1-expressing Jurkat cells were stimulated with PHA (50 ng/ml) for the indicated times before co-immunoprecipitation and immunoblotting analysis with the indicated antibodies. • (E) MARCH5 promotes degradation of γc in a dose-dependent manner. HEK293 cells were transfected with the indicated plasmids for 24 h before immunoblot analysis with the indicated antibodies. • (F) Association of γc with MARCH5. […]
Cells were lysed in 1 ml of NP-40 lysis buffer (20 mM Tris-HCl, 150 mM NaCl, 1 mM EDTA, 10% Nonidet P-40, […] Triton X-100, […] aprotinin, 10 μg/ml leupeptin, and 1 mM phenylmethylsulfonyl fluoride, PMSF). […] The immunoprecipitants were analyzed by immunoblotting with the ubiquitin antibody.

MARCH5 [3] = target: T1, MARCH5; assay: MARCH5-mediated degradation of γc in HEK293 cells; type: cell-based
Description: HEK293 cells were transfected by standard calcium phosphate precipitation. The empty control plasmid was added to ensure that each transfection receives the same amount of total DNA.
Cells were lysed in 1 ml of NP-40 lysis buffer (20 mM Tris-HCl, 150 mM NaCl, 1 mM EDTA, 10% Nonidet P-40, […] Triton X-100, […] aprotinin, 10 μg/ml leupeptin, and 1 mM phenylmethylsulfonyl fluoride, PMSF). For each immunoprecipitation reaction, a 0.4 ml aliquot of lysate was incubated with 0.5-2 μg of the indicated antibody or control IgG and 35 μL of a 1:1 slurry of Protein-G Sepharose (GE Healthcare) at 4° C. for 3 h. The Sepharose beads were washed three times with 1 ml of lysis buffer containing 500 mM NaCl. The precipitates were fractionated by SDS-PAGE, and immunoblotting analysis was performed with the indicated antibodies. For ubiquitination assays, the immunoprecipitants were re-extracted in NP-40 lysis buffer containing 1% SDS and denatured by heating for 10 min. The supernatants were diluted with regular lysis buffer until the concentration of SDS was decreased to 0.1%, following by re-immunoprecipitation with the indicated antibodies. The immunoprecipitants were analyzed by immunoblotting with the ubiquitin antibody.

γc [4] = assay: Effects of other statin drugs on the γc level; type: cell-based; settings: other HMG-CoA reductase inhibitor statins
Source text: Statin drugs, such as lovastatin, simvastatin, fluvastatin sodium and rosuvastatin calcium, are thought to target HMG-CoA reductase. Therefore, we examined the effects of these statin drugs on the γc level.

tumor = assay: PC or rosuvastatin calcium alone or with IL-2 on tumor growth in mice; type: in vivo, mouse
Source text: We further tested the anti-tumor effects of PC in mouse MC38 colorectal carcinoma and B16F10 melanoma models.

Row | Compound | Rel. Luc. Act (MARCH5 [1]) | also measured
1 | O=C(/C=C/c1cccc(S(=O)(=O)Nc2ccccc2)c1)NO [Belinostat] | 1.85 | –
2 | Nc1ccccc1NC(=O)c1ccc(CNC(=O)OCc2cccnc2)cc1 [Entinostat] | 1.60 | –
3 | NC(=O)N1CCC(CC(=O)N2CCC([C@H]3c4ncc(Br)cc4CCc4cc(Cl)cc(Br)c43)CC2)CC1 [Lonafarnib] | 2.88 | –
4 | Nc1ccccc1NC(=O)c1ccc(CNc2nccc(-c3cccnc3)n2)cc1 [Mocetinostat] | 1.83 | –
5 | Cl.N [NH4Cl, ammonium chloride] | – | γc degradation after termination of protein synthesis by CHX (γc [2]; Jurkat cells, MG132 100 μM, NH4Cl 25 mM or 3-MA 500 ng/ml 4 h, then CHX 0.1 mM 2 h): markedly inhibited; also recorded: inhibits γc degradation; PD-L1-induced degradation of γc (γc [2]; PD-1-expressing Jurkat cells, PHA + PD-L1-Fc 36 h, then inhibitor 12 h): also inhibited; also recorded: inhibits PD-1 ligation-induced degradation of γc; MARCH5-mediated degradation of γc (MARCH5 [3]): inhibited MARCH5-mediated degradation of γc
6 | CCCCc1nc2cc(/C=C/C(=O)NO)ccc2n1CCN(CC)CC [Pracinostat] | 1.75 | –
7 | O=P(O)(O)C(O)(Cc1cccnc1)P(=O)(O)O [Risedronate Sodium] | 1.60 | –
8 | Nc1cc(F)ccc1NC(=O)c1ccc(CNC(=O)/C=C/c2cccnc2)cc1 [Tucidinostat] | 1.86 | –
9 | O=C(CCCCCCC(=O)Nc1ccccc1)NO [Vorinostat] | 1.58 | –
10 | CC[C@H](C)C(=O)O[C@H]1C[C@@H](C)C=C2C=C[C@H](C)[C@H](CC[C@@H]3C[C@@H](O)CC(=O)O3)[C@H]21 [lovastatin] | – | γc level (γc [4]): up-regulated the level of γc
11 | CC(C)c1nc(N(C)S(C)(=O)=O)nc(-c2ccc(F)cc2)c1/C=C/[C@@H](O)C[C@@H](O)CC(=O)[O-].CC(C)c1nc(N(C)S(C)(=O)=O)nc(-c2ccc(F)cc2)c1/C=C/[C@@H](O)C[C@@H](O)CC(=O)[O-].[Ca+2] [rosuvastatin calcium] | – | γc level (γc [4]): up-regulated the level of γc; synergistic effect with IL-2 on tumor suppression (tumor; combined with IL-2, mice): no such synergism was observed; tumor growth (tumor; statin administered alone, mice): suppressed tumor growth
12 | Chidamide | 1.59 | –

— US20260216168A1, “MODULATION OF PD-1 SIGNALING FOR TREATMENT OF DISEASES” (Wuhan University, priority 2023, published 2026)
